Earlier results on nine molecules are cited in patent publication US8226980B2, “Orally disintegrating solid dosage forms comprising progestin and methods of making and using thereof” (Teva Women's Health, Inc., priority 2006, dated 2012).

Read-outs that look alike come from different tables or passages of the source.

For this data set the following is noted: for Dose roughly equivalent to 0.050 mg of levonorgestrel: in a contraceptive regimen.

On to `C#C[C@]1(O)CC[C@H]2[C@@H]3CCC4=C(CCC(=O)C4)[C@H]3CC[C@@]21C` [Norethynodrel], for which the “Norethindrone Equivalent* Dose” value was 2.50 mg (progestin Dose 2.50 mg), 5.00 mg (progestin Dose 5.00 mg) and 9.85 mg (progestin Dose 9.85 mg).

For `C#C[C@]1(O)CC[C@H]2[C@@H]3CCC4=CC(=O)CC[C@@H]4[C@H]3C(=C)C[C@@]21CC` [3-ketodesogestrel], the “Dose roughly equivalent to 0.050 mg of levonorgestrel” value (“Dose roughly equivalent to 0.050 mg” below) is on record as “about 0.050 mg”.

`C#C[C@]1(OC(C)=O)CC[C@H]2[C@@H]3CCC4=CC(=O)CC[C@@H]4[C@H]3CC[C@@]21C` [Norethindrone acetate]: the “Dose roughly equivalent to 0.050 mg” value is “about 0.175 mg”. For the same molecule, the “Norethindrone Equivalent* Dose” value (progestin Dose 0.40 mg) is 0.40 mg. In addition, the “Norethindrone Equivalent* Dose” value (progestin Dose 0.50 mg) is given as 0.50 mg. Moreover, the “Norethindrone Equivalent* Dose” value (progestin Dose 0.60 mg) is recorded as 0.60 mg. Besides, the “Norethindrone Equivalent* Dose” value (progestin Dose 1.00 mg) was 1.00 mg. Moreover, for the setting “progestin Dose 1.50 mg”, the “Norethindrone Equivalent* Dose” value is given as 1.50 mg. Also, the “Norethindrone Equivalent* Dose” value (progestin Dose 2.50 mg) is on record as 2.50 mg.

On to `C#C[C@]1(O)CC[C@H]2[C@@H]3CCC4=CC(=O)CC[C@@H]4[C@H]3CC[C@@]21C` [Norethindrone], for which the “Norethindrone Equivalent* Dose” value runs as follows: (progestin Dose 1.00 mg) 1.00 mg; (progestin Dose 2.00 mg) 2.00 mg; (progestin Dose 10.00 mg) 10.00 mg.

For the molecule `C#C[C@]1(O)CCC2C3CCC4=CC(=O)CCC4C3CCC21CC` (stereo partly drawn) [Levonorgestrel, 18,19-Dinorpregn-4-en-20-yn-3-one-13-ethyl-17-hydroxy-, (17α)-(−)-], the “Norethindrone Equivalent* Dose” value was 0.35 mg (progestin Dose 0.10 mg) and 0.52 mg (progestin Dose 0.15 mg).

As for `C#C[C@]1(O)CC[C@H]2[C@@H]3CCC4=CCCC[C@@H]4[C@H]3C(=C)C[C@@]21CC` [desogestrel], the “Dose roughly equivalent to 0.050 mg” value is listed as “about 0.050 mg”.

For `C#C[C@]1(OC(C)=O)CC[C@H]2[C@@H]3CCC4=C[C@@H](OC(C)=O)CC[C@@H]4[C@H]3CC[C@@]21C` [Ethynodiol diacetate], the “Norethindrone Equivalent* Dose” value (progestin Dose 1.00 mg) is given as 1.00 mg.

Regarding `C#CC1(O)CC[C@H]2[C@@H]3CCC4=CC(=O)CC[C@@H]4[C@H]3CC[C@@]21CC` (mixture of isomers) [dl-Norgestrel], the “Dose roughly equivalent to 0.050 mg” value was “about 0.100 mg”. For the same molecule, the “Norethindrone Equivalent* Dose” value (progestin Dose 0.30 mg) is 0.45 mg. Where the note is “progestin Dose 0.50 mg”, the “Norethindrone Equivalent* Dose” value is given as 0.75 mg.

For the molecule `C#C[C@]1(O)C=C[C@H]2[C@@H]3CCC4=CC(=O)CC[C@@H]4[C@H]3CC[C@@]21CC` [gestodene], the “Dose roughly equivalent to 0.050 mg” value was “about 0.035 mg”.
